Where two headings read alike, the source gives them in different places.
Key:
[1] = system: Panc1 pancreatic cancer cell line; assay: CellTiter-Glo IC50 (Example 19); format: cell-based; settings: Homo sapiens, PANC-1, 72 h
Procedure, shortened: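 Cells were seeded at 1000 cells/well and kept at 37 °C, 5% CO2. After compound treatment, viability was read by CellTiter-Glo luminescence as % of untreated control. IC50 came from a non-linear log(inhibitor) vs response fit with variable slope.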

SCC-25 cell line = assay: Additional in vitro IC50 tests (Table 3); format: cell-based; settings: Homo sapiens
Procedure, shortened: (§1)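 Cells at 1000/well, viability by CellTiter-Glo luminescence after compound treatment, as % of untreated control. IC50 from variable-slope log(inhibitor) vs response nonlinear regression.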

EBC-1 cell line = assay: Additional in vitro IC50 tests (Table 3); format: cell-based; settings: Homo sapiens
Procedure, shortened: as §1

Detroit 562 cell line = assay: Additional in vitro IC50 tests (Table 3); format: cell-based; settings: Homo sapiens
Procedure, shortened: as §1

H2228 cell line = assay: Additional in vitro IC50 tests (Table 3); format: cell-based; settings: Homo sapiens, NCI-H2228
Procedure, shortened: as §1

Fadu cell line = assay: Additional in vitro IC50 tests (Table 3); format: cell-based; settings: Homo sapiens
Procedure, shortened: as §1

Panc-1 human cell line = assay: Cytotoxicity on Panc-1, xCELLigence SP, IC50 after 24 h, 48 h, 72 h and 96 h (Example 22)
[2] = system: PANC-1 (human pancreatic carcinoma) cells; assay: Impedance-based viability assay (xCELLigence SP), long treatment; format: cell-based; settings: 72 h, read-out: cytotoxicity expressed in IC50, PANC-1
From the text: (Gibco®/Invitrogen Corporation, New York, NY, USA).
Data obtained from each experiment represent mathematical averages.

[3] = system: Capan-1 (pancreas, adenocarcinoma) cells; assay: Cell viability assay, CellTiter-Glo (Example 21); format: cell-based, human; settings: 72 h treatment
Procedure, shortened: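 Capan-1 cells were seeded at 1000 cells/well in flat-bottomed white 96 well plates (BRANDplates®), with density optimized for cell size and growth rate. Following compound treatment, viability was measured with the CellTiter-Glo® luminescent assay (Promega) per the manufacturer's instructions, reading luminescence on a BioTek Synergy 2 Multi-Mode Reader.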

[4] = system: Detroit 562 (pharynx, carcinoma) cells; assay: Cell viability assay, CellTiter-Glo (Example 21); format: cell-based, human; settings: 72 h treatment
Procedure, shortened: (§2)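 Seeding density per line: Panc-1 750, FaDu 1000, Detroit 562 and MDA-MB-453 1500 cells/well. Viability after treatment read by CellTiter-Glo luminescence; dose-response curves fitted by four-parameter variable-slope non-linear regression.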

[5] = system: DU 145 (prostate, carcinoma) cells; assay: Cell viability assay, CellTiter-Glo (Example 21); format: cell-based, human; settings: 72 h
Procedure, shortened: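 DU 145 cancer cell viability was assessed with the CellTiter-Glo® luminescent assay (Promega, Madison, WI, USA), following the manufacturer's instructions. Cells were seeded at 1000 cells/well in flat-bottomed white 96 well plates, and after treatment luminescence was read on a BioTek Synergy 2 Multi-Mode Reader.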

[6] = system: LNCaP (prostate, carcinoma) cells; assay: Cell viability assay, CellTiter-Glo (Example 21); format: cell-based, human; settings: 72 h
Procedure, shortened: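 LNCaP prostate carcinoma cell viability was assessed with the CellTiter-Glo® luminescent assay (Promega), following the manufacturer's instructions. Cells were seeded at 1500 cells/well into flat-bottomed white 96 well plates, treated, and then luminescence was read on a BioTek Synergy 2 Multi-Mode Reader. Dose-response curves were fitted in GraphPad Prism 8.4.2 by four-parameter variable-slope non-linear regression.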

[7] = system: MIA PaCa-2 (pancreas, carcinoma) cells; assay: Cell viability assay, CellTiter-Glo (Example 21); format: cell-based, human; settings: 72 h treatment
Procedure, shortened: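 MIA PaCa-2 pancreatic carcinoma cells were seeded at 1000 cells/well in flat-bottomed white 96 well plates (BRANDplates®, cat. no.: 781965) and treated with compound. Viability was then determined with the CellTiter-Glo® luminescent cell viability assay (Promega) following the manufacturer's instructions, with luminescence read on a BioTek Synergy 2 Multi-Mode Reader.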

[8] = system: PC-3 (prostate, adenocarcinoma) cells; assay: Cell viability assay, CellTiter-Glo (Example 21); format: cell-based, human; settings: 72 h treatment
Procedure, shortened: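 PC-3 prostate adenocarcinoma cells were seeded at 1000 cells/well in flat-bottomed white 96 well plates and treated with compounds. Viability was then determined with the CellTiter-Glo® luminescent assay (Promega) following the manufacturer's instructions, with luminescence read on a BioTek Synergy 2 Multi-Mode Reader.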

[9] = system: SCC-25 (tongue, squamous cell carcinoma) cells; assay: Cell viability assay, CellTiter-Glo (Example 21); format: cell-based, human; settings: 72 h treatment
Procedure, shortened: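 SCC-25 tongue squamous cell carcinoma cells were seeded at 1000 cells/well in flat-bottomed white 96 well plates, treated with compound, and viability was then determined with the CellTiter-Glo luminescent assay (Promega) following the manufacturer's instructions. Luminescence was read on a BioTek Synergy 2 Multi-Mode Reader.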

[10] = system: FaDu (pharynx, squamous cell carcinoma) cells; assay: Cell viability assay, CellTiter-Glo (Example 21); format: cell-based, human; settings: 72 h treatment
Procedure, shortened: as §2

[11] = system: MDA-MB-453 (breast, carcinoma) cells; assay: Cell viability assay, CellTiter-Glo (Example 21); format: cell-based, human; settings: 72 h treatment
Procedure, shortened: as §2

[12] = system: Panc-1 (pancreas, carcinoma) cells; assay: Cell viability assay, CellTiter-Glo (Example 21); format: cell-based, human; settings: 72 h treatment
Procedure, shortened: as §2

[13] = system: MDA-MB-231 (breast, adenocarcinoma) cells; assay: Cell viability assay, CellTiter-Glo (Example 21); format: cell-based, human; settings: 72 h treatment
Procedure, shortened: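 MDA-MB-231 breast adenocarcinoma cells were seeded at 1500 cells/well in flat-bottomed white 96 well plates (BRANDplates®, cat. no.: 781965). Following compound exposure, viability was assessed with the CellTiter-Glo® luminescent assay (Promega) following the manufacturer's protocol, and luminescence was read on a BioTek Synergy 2 Multi-Mode Reader.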

[14] = system: EBC-1 (lung, squamous cell carcinoma) cells; assay: Cell viability assay, CellTiter-Glo (Example 21); format: cell-based, human; settings: 72 h treatment
Procedure, shortened: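 EBC-1 lung squamous cell carcinoma cells were seeded at 1000 cells/well in flat-bottomed white 96 well plates. After compound treatment, viability was measured with the CellTiter-Glo luminescent assay following the manufacturer's instructions, and luminescence was read on a BioTek Synergy 2 Multi-Mode microplate reader.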

## O=C1C2=C(CCN(Cc3cc(F)cc(F)c3)C2)N2CCN=C2N1Cc1ccc(F)cc1 [I/7, 4-(4-Fluorobenzyl)-7-(3,5-difluorobenzyl)-2,4,6,7,8,9-hexahydroimidazo[1,2-a]pyrido[3,4-e]pyrimidin-5(1H)-one]
[1]
  IC50: 11 nM
SCC-25 cell line
  IC50: 13 nM
EBC-1 cell line
  IC50: 9 nM
Detroit 562 cell line
  IC50: 3 nM
H2228 cell line
  IC50: 10 nM
Fadu cell line
  IC50: 10 nM
Panc-1 human cell line; PANC-1, 72 h, read-out: IC50 (72 h) [nM]
  IC50: 27.3 ± 15.4 nM
Panc-1 human cell line; PANC-1, 96 h, read-out: IC50 (96 h) [nM]
  IC50: 22.1 ± 5.98 nM
[2]
  IC50: 8 nM
[3]; 3.7 nM
  Capan-1 (pancreas, adenocarcinoma) cell viability (% of control): 101.9 ± 3.8 % of control
[3]; 11.1 nM
  Capan-1 (pancreas, adenocarcinoma) cell viability (% of control): 46.0 ± 7.5 % of control
[3]; 100 nM
  Capan-1 (pancreas, adenocarcinoma) cell viability (% of control): 36.1 ± 2.8 % of control
[3]; 300 nM
  Capan-1 (pancreas, adenocarcinoma) cell viability (% of control): 35.5 ± 3.3 % of control
[4]; 3.7 nM
  Detroit 562 (pharynx, carcinoma) cell viability (% of control): 35.1 ± 5.8 % of control
[4]; 11.1 nM
  Detroit 562 (pharynx, carcinoma) cell viability (% of control): 28.4 ± 4.2 % of control
[4]; 100 nM
  Detroit 562 (pharynx, carcinoma) cell viability (% of control): 28.6 ± 13.6 % of control
[4]; 300 nM
  Detroit 562 (pharynx, carcinoma) cell viability (% of control): 33.0 ± 4.8 % of control
[5]; 3.7 nM
  DU 145 cell viability: 64.1 ± 8.0 % of control
[5]; 11.1 nM
  DU 145 cell viability: 7.5 ± 0.6 % of control
[5]; 100 nM
  DU 145 cell viability: 7.2 ± 2.3 % of control
[5]; 300 nM
  DU 145 cell viability: 8.5 ± 2.4 % of control
[6]; 3.7 nM
  LNCaP cell viability: 45.6 ± 7.0 % of control
[6]; 11.1 nM
  LNCaP cell viability: 17.2 ± 1.9 % of control
[6]; 100 nM
  LNCaP cell viability: 13.1 ± 0.8 % of control
[6]; 300 nM
  LNCaP cell viability: 13.9 ± 1.0 % of control
[7]; 3.7 nM
  MIA PaCa-2 (pancreas, carcinoma) cell viability (% of control): 87.4 ± 12.0 % of control
[7]; 11.1 nM
  MIA PaCa-2 (pancreas, carcinoma) cell viability (% of control): 23.1 ± 6.3 % of control
[7]; 100 nM
  MIA PaCa-2 (pancreas, carcinoma) cell viability (% of control): 18.5 ± 6.8 % of control
[7]; 300 nM
  MIA PaCa-2 (pancreas, carcinoma) cell viability (% of control): 19.8 ± 8.6 % of control
[8]; 3.7 nM
  PC-3 (prostate, adenocarcinoma) cell viability (% of control): 82.1 ± 1.6 % of control
[8]; 11.1 nM
  PC-3 (prostate, adenocarcinoma) cell viability (% of control): 38.9 ± 2.1 % of control
[8]; 100 nM
  PC-3 (prostate, adenocarcinoma) cell viability (% of control): 34.6 ± 3.0 % of control
[8]; 300 nM
  PC-3 (prostate, adenocarcinoma) cell viability (% of control): 34.3 ± 3.4 % of control
[9]; 3.7 nM
  SCC-25 (tongue, squamous cell carcinoma) cell viability (% of control): 88.7 ± 5.6 % of control
[9]; 11.1 nM
  SCC-25 (tongue, squamous cell carcinoma) cell viability (% of control): 45.1 ± 4.7 % of control
[9]; 100 nM
  SCC-25 (tongue, squamous cell carcinoma) cell viability (% of control): 35.1 ± 2.2 % of control
[9]; 300 nM
  SCC-25 (tongue, squamous cell carcinoma) cell viability (% of control): 39.7 ± 2.7 % of control
[10]; 3.7 nM
  FaDu (pharynx, squamous cell carcinoma) cell viability (% of control): 80.1 ± 13.3 % of control
[10]; 11.1 nM
  FaDu (pharynx, squamous cell carcinoma) cell viability (% of control): 29.1 ± 5.6 % of control
[10]; 100 nM
  FaDu (pharynx, squamous cell carcinoma) cell viability (% of control): 24.0 ± 3.8 % of control
[10]; 300 nM
  FaDu (pharynx, squamous cell carcinoma) cell viability (% of control): 26.1 ± 4.5 % of control
[11]; 3.7 nM
  MDA-MB-453 (breast, carcinoma) cell viability (% of control): 55.8 ± 6.5 % of control
[11]; 11.1 nM
  MDA-MB-453 (breast, carcinoma) cell viability (% of control): 35.8 ± 1.3 % of control
[11]; 100 nM
  MDA-MB-453 (breast, carcinoma) cell viability (% of control): 33.1 ± 1.1 % of control
[11]; 300 nM
  MDA-MB-453 (breast, carcinoma) cell viability (% of control): 31.6 ± 0.9 % of control
[12]; 3.7 nM
  Panc-1 (pancreas, carcinoma) cell viability (% of control): 108.6 ± 7.6 % of control
[12]; 11.1 nM
  Panc-1 (pancreas, carcinoma) cell viability (% of control): 61.1 ± 3.4 % of control
[12]; 100 nM
  Panc-1 (pancreas, carcinoma) cell viability (% of control): 60.0 ± 3.6 % of control
[12]; 300 nM
  Panc-1 (pancreas, carcinoma) cell viability (% of control): 53.5 ± 0.6 % of control
[13]; 3.7 nM
  MDA-MB-231 (breast, adenocarcinoma) cell viability (% of control): 99.6 ± 2.2 % of control
[13]; 11.1 nM
  MDA-MB-231 (breast, adenocarcinoma) cell viability (% of control): 63.6 ± 4.4 % of control
[13]; 100 nM
  MDA-MB-231 (breast, adenocarcinoma) cell viability (% of control): 58.6 ± 3.0 % of control
[13]; 300 nM
  MDA-MB-231 (breast, adenocarcinoma) cell viability (% of control): 59.4 ± 3.0 % of control
[14]; 3.7 nM
  EBC-1 (lung, squamous cell carcinoma) cell viability (% of control): 79.8 ± 4.1 % of control
[14]; 11.1 nM
  EBC-1 (lung, squamous cell carcinoma) cell viability (% of control): 25.6 ± 0.1 % of control
[14]; 100 nM
  EBC-1 (lung, squamous cell carcinoma) cell viability (% of control): 23.2 ± 0.9 % of control
[14]; 300 nM
  EBC-1 (lung, squamous cell carcinoma) cell viability (% of control): 23.8 ± 0.6 % of control
